This note sets out measurements from patent publication US7498304B2, “Angiogenesis-modulating compositions and uses” (Curis, Inc., priority 2002, dated 2009).

For test [1], the system named is Hedgehog pathway signaling (Shh-induced Gli-transcription) in 10T1/2(s12) cells. The experiment in a line: Gli-Luc assay, OCT-SHH-induced luciferase reporter. Type of test: cell-based, mouse. The following applies: Gli-Luc response, OCT-SHH 0.3 μg/ml. How it is done: Compounds to be tested are dissolved in DMSO to a concentration of 10 mM, and stored at −20° C. To activate the Hedgehog pathway in the assay cells, an octylated (lipid-modified) form of the N-terminal fragment of the Sonic Hedgehog protein (OCT-SHH) is used. This N-terminal SHH fragment is produced bacterially.
Compounds may be tested in the “Gli-Luc” assay below, using the cell line 10T(s12), wherein the cells contain a Hedgehog-responsive reporter construct utilizing Luciferase as the reporter gene. In this way, Hedgehog pathway signaling activity can be measured via the Gli-Luc response.
10t1/2(s12) cells are plated in a 96-well micro-titer plate (MTP) at 20,000 cells/well in full medium [DMEM with 10% FBS]. Then plates are placed in the incubator for incubation overnight (O/N), at 37° C. and 5% CO2. After 24 h, the medium is replaced with Luciferase-assay medium (DMEM with 0.5% FBS). Compounds are thawed and diluted in assay medium at 3:1000 (about 300-fold) resulting in a starting concentration of about 30 μM.
Subsequently, 150 μl of each 30 μM sample is added to the first wells (in triplicate). The MTP samples are then diluted at 3-fold dilutions to a total of seven wells, ultimately resulting in a regiment of seven dilutions in triplicate, for each compound. Next, the protein ligand OCT-SHH is diluted in Luciferase-assay medium and added to each well at a final concentration of 0.3 μg/ml. Plates are then returned to the incubator for further incubation O/N, at 37° C. and 5% CO2. After about 24 h, plates are removed from the incubator and the medium is aspirated/discarded. Wells are washed once with assay buffer [PBS+1 mM Mg^2+ and 1 mM Ca^2+]. Then 50 μl of assay buffer is added to each well. The Luciferase assay reagent is prepared as described by the vendor (LucLite kit from Packard), and 50 μl is added to each well. Plates are incubated at room temperature (RT) for about 30 minutes after which the signals are read, again at RT, on a Topcount (Packard).
The discovery of compounds that inhibit Shh-induced Gli-transcription exemplifies the utility of the claims in this patent.
In general terms: A reporter such as luciferase makes a cellular process visible.

For another test, the system named is mouse cornea. The experiment in a line: mouse corneal pocket model of angiogenesis. It counts as in vivo. How it is done: To confirm the angiogenic activity of hedgehog in another well accepted model of angiogenesis, we tested the ability of hedgehog protein to induce neovascularization in the mouse corneal model pocket model of angiogenesis.
Animals were anesthetized by pentobarbital intraperitoneal injection (160 mg/kg). Corneal pockets were created in the eyes of each mouse and a 0.34×0.34 mm sucrose albumin sulfate (Bukh Meditec, Vaerlose, DK) pellet coated with hydron polymer type NCC (Interferon Sciences, New Brunswick, N.J.) containing 1 of the agents indicated below was implanted into the corneal pocket. […] mice were divided into 5 groups: control buffer alone; VEGF 300 ng/pellet; Myr-Shh vehicle alone; Myr-Shh 1.5 microg/pellet […]; Myr-Shh+VEGF (1.5 microg/pellet +300 ng/pellet, respectively). Pellets were positioned 1.0 mm from the corneal limbus, and erythromycin ophthalmic ointment (E. Fourera) was applied to each operated eye. The corneas of all mice were routinely examined by slit-lamp biomicroscopy on postoperative day 6 after pellet implantation.
On the same day vessel length and corneal circumferential neovascularity (in degrees) were measured. After completing these measurements, C57BL/6J mice received an intravenous injection of […] of BS-1 lectin FITC-conjugated (Vector Laboratories, Burlingame, Calif.). Thirty minutes later, the animals were sacrificed. The eyes were enucleated and fixed in 1% paraformaldehyde solution. After fixation, the corneas were placed on glass slides and examined by fluorescence microscopy.
To determine the mechanism by which Shh induces angiogenesis both Shh and VEGF-stimulated corneas (see Example 3) were excised and X-gal stained as described in Example 1 after fixation of the whole eye for 1 hour in 1% paraformaldehyde followed by enucleation and fixation of the corneal hemisphere in 1% paraformaldehyde for 30 minutes. […] Endothelial cell immunostaining was done with a rat monoclonal antibody against mouse CD-31 (Pharmigen, San Diego, Calif.) followed by a biotinylated goat anti-rat immunoglobulin secondary antibody. Smooth muscle cells and pericytes were identified with a mouse monoclonal antibody against SM a-actin conjugated with alkaline-phosphatase (Sigma, St. Louis, Mo.) and fibroblasts were identified using an anti-vimentin antibody (Sigma, St. Louis, Mo.).
We then immunostained the Shh-induced corneas with a rabbit polyclonal anti-VEGF antibody (Santa Cruz Biotechnology, Santa Cruz, Calif.) with a biotinylated goat anti-rabbit immunoglobulin as secondary antibody.

Where [2] appears, read: pellet: Myr-Shh 1.5 microg or VEGF 300 ng.

A word on the IC50: it is the midpoint of a concentration-inhibition curve. Lower therefore signals greater potency. In turn, `CCOC(=O)c1ccccc1NC(=O)N(C)C(C)c1nc2ccccc2c(=O)n1-c1ccc(F)cc1` (stereo not drawn) [Compound 63] returned a concentration for half-maximal inhibition (IC50) in test [1] below 10 µM.

For the molecule `CC(NC(=O)Nc1cccc(C(F)(F)F)c1)c1nc2ccccc2c(=O)n1-c1ccc(F)cc1` (stereo not drawn) [Compound 73], the IC50 in test [1] is below 5 µM. Turning to `O=C(NCCCc1nc2ccccc2c(=O)n1-c1ccc(F)cc1)Nc1cccc(C(F)(F)F)c1` [Compound 74], the 50% inhibitory concentration (IC50) in test [1] is below 5 µM. In test [1], `Cc1c(NC(=O)N(C)C(C)c2nc3ccccc3c(=O)n2-c2ccc(F)cc2)cccc1[N+](=O)[O-]` (stereo not drawn) [Compound 59] had a 50% inhibitory concentration (IC50) below 5 µM. The molecule `CCC(C)N(CCC(=O)NC1CCCc2ccccc21)C(=O)c1cccc2ccccc12` (stereo not drawn) [Compound 48] had a half-inhibitory concentration (IC50) in test [1] below 0.5 µM. The molecule `CC(c1nc2ccccc2c(=O)n1-c1ccc(F)cc1)N(C)C(=O)Nc1cccc(SC(F)(F)F)c1` (stereo not drawn) [Compound 52] registered a 50% inhibitory concentration (IC50) in test [1] below 1 µM.

For `CC(c1nc2ccccc2c(=O)n1-c1ccc(F)cc1)N1CCN(C(=O)Nc2ccc(Cl)c(Cl)c2)CC1` (stereo not drawn) [Compound 43], the IC50 in test [1] was below 10 µM. `CCC(c1nc2ccccc2c(=O)[nH]1)N1CCN(C(=O)Nc2ccc(Cl)c(Cl)c2)C(C)C1` (stereo not drawn) [Compound 45] showed an IC50 in test [1] below 5 µM. The molecule `CC(C)c1cccc(NC(=O)N(C)C(C)c2nc3ccccc3c(=O)n2-c2ccc(F)cc2)c1` (stereo not drawn) [Compound 57] displayed an IC50 in test [1] below 10 µM. Still for that read-out and setting: for `CCCN(CCC(=O)NC1CCCc2ccccc21)C(=O)c1cc(OC)cc(OC)c1` (stereo not drawn) [Compound 47] the value was below 5 µM. Same read-out and setting: the value for `CC(c1nc2ccccc2c(=O)n1-c1ccc(F)cc1)N(C)C(=O)Nc1ccc([N+](=O)[O-])c(Cl)c1` (stereo not drawn) [Compound 62] was below 1 µM. For the molecule `O=C(NCc1nc2ccccc2c(=O)n1-c1ccc(F)cc1)Nc1ccc(Cl)c(C(F)(F)F)c1` [Compound 5], the IC50 in test [1] is below 0.1 µM.

Turning to `CC(c1nc2ccccc2c(=O)n1-c1ccc(F)cc1)N(Cc1ccco1)C(=O)Nc1cccc(F)c1` (stereo not drawn) [Compound 31], in test [1], the IC50 was below 10 µM. `O=C(NCc1nc2ccccc2c(=O)n1-c1ccc(F)cc1)Nc1ccc(Cl)c([N+](=O)[O-])c1` [Compound 69] displayed an IC50 in test [1] below 0.5 µM. Consider `CC(c1nc2ccccc2c(=O)n1-c1ccc(F)cc1)N(C)C(=O)Nc1ccc(Cl)c(Cl)c1` (stereo not drawn) [Compound 53], for which the IC50 in test [1] was below 1 µM. `CC(c1nc2ccccc2c(=O)n1-c1ccc(F)cc1)N(C)C(=O)Nc1ccc([N+](=O)[O-])cc1Cl` (stereo not drawn) [Compound 64] showed an IC50 in test [1] below 10 µM.

As for `CC(c1nc2ccccc2c(=O)n1-c1ccc(F)cc1)N(C)C(=O)Nc1ccc([N+](=O)[O-])c(C(F)(F)F)c1` (stereo not drawn) [Compound 32], the concentration for half-maximal inhibition (IC50) in test [1] is below 5 µM. With `CC(c1nc2ccccc2c(=O)n1-c1ccc(F)cc1)N(C)C(=O)Nc1cccc(C(F)(F)F)c1` (stereo not drawn) [Compound 11], the 50% inhibitory concentration (IC50) in test [1] is below 5 µM. On the same count and under the same terms, for `CC(c1nc2ccccc2c(=O)n1-c1ccc(F)cc1)N(C)C(=O)Nc1cccc(F)c1` (stereo not drawn) [Compound 55] the value was below 5 µM.

In the case of `CCC(C)N(CCC(=O)NC1CCCc2ccccc21)C(=O)COc1ccc(Cl)cc1` (stereo not drawn) [Compound 49], the IC50 in test [1] was below 1 µM. Regarding VEGF [reference compound], in the test with mouse cornea (Ptc1-lacZ corneas), the “X-gal staining (Ptc 1 expression) of corneas” value was “did not stain with X-gal”. Also, in the test on mouse cornea (compared with Shh), the “mean number of vascular lumens per cross section” value is on record as “higher”. In the test with mouse cornea (setting [2]), the maximum vessel lengths was 700±70 um and the “vessel diameters (mean)” value was 8±3 um. The neovascular growth result in the test with mouse cornea (pellet: Myr-Shh 1.5 microg or VEGF 300 ng, day 6) is recorded as “significant neovascular growth”. In the case of `COc1cccc(NC(=O)NCc2nc3ccccc3c(=O)n2-c2ccc(F)cc2)c1C` [Compound 71], the 50% inhibitory concentration (IC50) in test [1] is below 10 µM. Molecule `CC(c1nc2ccccc2c(=O)n1-c1ccc(F)cc1)N(C)C(=O)Nc1cc(Cl)nc(Cl)c1` (stereo not drawn) [Compound 58] came in with an IC50 in test [1] below 5 µM.

Consider `CCC(=O)N1CCN(C(CC)c2nc3ccccc3c(=O)n2-c2ccc(C)cc2)C(C)C1` (stereo not drawn) [Compound 42], for which the half-maximal inhibitory concentration (IC50) in test [1] was below 5 µM. On to `Cc1c(NC(=O)NCc2nc3ccccc3c(=O)n2-c2ccc(F)cc2)cccc1SC(F)(F)F` [Compound 67], for which the half-inhibitory concentration (IC50) in test [1] is below 5 µM. For `CCOOC(=O)c1cccc(NC(=O)N(C)C(C)c2nc3ccccc3c(=O)n2-c2ccc(F)cc2)c1` (stereo not drawn) [Compound 65], the IC50 in test [1] was below 10 µM. In test [1], `O=C(Nc1cccc(C(F)(F)F)c1)NC(c1nc2ccccc2c(=O)n1-c1ccc(F)cc1)C1CC1` (stereo not drawn) [Compound 75] yielded an IC50 below 5 µM. `CCCN(C(=O)Nc1cccc(OC)c1)C(C)c1nc2ccccc2c(=O)n1-c1ccc(F)cc1` (stereo not drawn) [Compound 38] returned a 50% inhibitory concentration (IC50) in test [1] below 5 µM.

In turn, `O=C(NCc1nc2ccccc2c(=O)n1-c1ccc(F)cc1)Nc1cc(Cl)nc(Cl)c1` [Compound 6] yielded an IC50 in test [1] below 0.5 µM. For `CCC(c1nc2ccccc2c(=O)[nH]1)N1CCN(C(=O)c2ccc(-c3ccccc3)cc2)C(C)C1` (stereo not drawn) [Compound 46], the concentration for half-maximal inhibition (IC50) in test [1] is below 0.5 µM. Turning to `CCCN(C(=O)Nc1cccc(C(F)(F)F)c1)C(C)c1nc2ccccc2c(=O)n1-c1ccc(F)cc1` (stereo not drawn) [Compound 36], the IC50 in test [1] was below 5 µM.

On to `CC(c1nc2ccccc2c(=O)n1-c1ccc(F)cc1)N(C)C(=O)Nc1ccc(-c2ccccc2)cc1` (stereo not drawn) [Compound 56], for which the IC50 in test [1] was below 10 µM. The molecule `CCC(c1nc2ccccc2c(=O)n1-c1ccc(C)cc1)N(CCc1ccccc1)C(=O)CCCCF` (stereo not drawn) [Compound 39] had an IC50 in test [1] below 5 µM.

`CC(c1nc2ccccc2c(=O)n1-c1ccc(F)cc1)N(C)C(=O)Nc1ccc(Cl)cc1[N+](=O)[O-]` (stereo not drawn) [Compound 66] came in with an IC50 in test [1] below 10 µM. Still for that read-out and setting: the value for `O=C(Cc1cccc(C(F)(F)F)c1)NCCc1nc2ccccc2c(=O)n1-c1ccc(F)cc1` [Compound 50] was below 1 µM. In turn, `CCCCc1ccc(C(=O)N(Cc2ccccc2)C(CC)c2nc3ccccc3c(=O)n2-c2ccc(C)cc2)cc1` (stereo not drawn) [Compound 40] returned a concentration for half-maximal inhibition (IC50) in test [1] below 10 µM. Consider `CC(c1nc2ccccc2c(=O)n1-c1ccc(F)cc1)N(C)C(=O)Nc1cccc(C#N)c1` (stereo not drawn) [Compound 51], for which, in test [1], the IC50 was below 5 µM.

In test [1], `O=C(NCc1nc2ccccc2c(=O)n1-c1ccc(F)cc1)Nc1ccc(Cl)c(Cl)c1` [Compound 68] came in with a half-inhibitory concentration (IC50) below 1 µM.

In turn, `CCCCCCCCC(=O)N(CCCCC)C(C)c1nc2ccccc2c(=O)n1-c1ccccc1` (stereo not drawn) [Compound 41] returned an IC50 in test [1] below 10 µM. Turning to `CC(c1nc2ccccc2c(=O)n1-c1ccc(F)cc1)N(C)C(=O)Nc1ccc(SC(F)(F)F)cc1` (stereo not drawn) [Compound 60], the IC50 in test [1] is below 5 µM. In turn, `CCCN(C(=O)Nc1cccc(Cl)c1)C(C)c1nc2ccccc2c(=O)n1-c1ccc(F)cc1` (stereo not drawn) [Compound 34] showed an IC50 in test [1] below 5 µM. For the molecule `O=C(NCc1nc2ccccc2c(=O)n1-c1ccc(F)cc1)Nc1cccc(C(F)(F)F)c1` [Compound 44], the 50% inhibitory concentration (IC50) in test [1] is below 1 µM. With `CC(c1nc2ccccc2c(=O)n1-c1ccc(F)cc1)N(C)C(=O)Nc1ccc(Cl)c(C(F)(F)F)c1` (stereo not drawn) [Compound 61], in test [1], the IC50 was below 1 µM. The molecule `CC(c1nc2ccccc2c(=O)n1-c1ccc(F)cc1)N(C)C(=O)Nc1ccc(C(F)(F)F)cc1` (stereo not drawn) [Compound 54] gave a 50% inhibitory concentration (IC50) in test [1] below 5 µM.
